# Experimental data reported in patent publication US10710978B2, “STK4 inhibitors for treatment of hematologic malignancies” (Dana-Farber Cancer Institute, Inc., priority 2015, dated 2020).
# Read-outs that look alike come from different tables or passages of the source.
# Key:
# Assay in all cases: KiNativ assay
# Type in all cases: binding
# [1] = target: PKCz (Homo sapiens (Human), UniProt Q05513); details: H929 live cell
# Protocol: (§1) Biochemical IC50s of the compounds of the present disclosure against various kinases were measured in a KiNativ assay. Compounds were screened in duplicate at 10 μM in H929 live cell. IC50 was measured via Mass spectroscopy (MS).
# [2] = target: PIK3CB (Homo sapiens (Human), UniProt P42338); details: H929 live cell
# Protocol: as §1
# [3] = target: ACK (Homo sapiens (Human), UniProt Q07912); details: H929 live cell
# Protocol: as §1
# [4] = target: STLK3 (Homo sapiens (Human), UniProt Q9UEW8); details: H929 live cell
# Protocol: as §1
# [5] = test system: MST1, MST2; details: H929 live cell
# Protocol: as §1
# [6] = target: PIK3CG (Homo sapiens (Human), UniProt P48736); details: H929 live cell
# Protocol: as §1
# [7] = target: RSKL1 (Homo sapiens (Human), UniProt Q96S38); details: H929 live cell
# Protocol: as §1
# [8] = test system: MARK1, MARK2; details: H929 live cell
# Protocol: as §1
# [9] = target: eEF2K (Homo sapiens (Human), UniProt O00418); details: H929 live cell
# Protocol: as §1
# [10] = target: CaMKK2 (Homo sapiens (Human), UniProt Q96RR4); details: H929 live cell
# Protocol: as §1
# [11] = test system: AurA, AurB, AurC; details: H929 live cell
# Protocol: as §1
# [12] = target: AurB (Homo sapiens (Human), UniProt Q96GD4); details: H929 live cell
# Protocol: as §1
# [13] = target: FRAP (Homo sapiens (Human), UniProt P42345); details: H929 live cell
# Protocol: as §1
# [14] = target: AKT1 (Homo sapiens (Human), UniProt P31749); details: H929 live cell
# Protocol: as §1
# [15] = target: CaMK2g (Homo sapiens (Human), UniProt Q13555); details: H929 live cell
# Protocol: as §1
# [16] = target: PKCi (Homo sapiens (Human), UniProt P41743); details: H929 live cell
# Protocol: as §1
# [17] = target: SMG1 (Homo sapiens (Human), UniProt Q96Q15); details: H929 live cell
# Protocol: as §1
# [18] = target: Erk2 (Homo sapiens (Human), UniProt P28482); details: H929 live cell
# Protocol: as §1
# [19] = target: BRAF (Homo sapiens (Human), UniProt P15056); details: H929 live cell
# Protocol: as §1
# [20] = test system: MST4; details: H929 live cell
# Protocol: as §1
# [21] = target: RSK2 domain2 (Homo sapiens (Human), UniProt P51812); details: H929 live cell
# Protocol: as §1
# [22] = target: GCK (Homo sapiens (Human), UniProt Q12851); details: H929 live cell
# Protocol: as §1
# [23] = test system: MARK2, MARK3; details: H929 live cell
# Protocol: as §1
# [24] = target: MLK3 (Homo sapiens (Human), UniProt Q16584); details: H929 live cell
# Protocol: as §1
# [25] = target: PRP4 (Homo sapiens (Human), UniProt Q13523); details: H929 live cell
# Protocol: as §1
# [26] = target: MAP3K2 (Homo sapiens (Human), UniProt Q9Y2U5); details: H929 live cell
# Protocol: as §1
# [27] = target: PKD3 (Homo sapiens (Human), UniProt O94806); details: H929 live cell
# Protocol: as §1
# [28] = target: PEK (Homo sapiens (Human), UniProt Q9NZJ5); details: H929 live cell
# Protocol: as §1
# [29] = target: PAN3 (Homo sapiens (Human), UniProt Q58A45); details: H929 live cell
# Protocol: as §1
# [30] = target: p38a (Homo sapiens (Human), UniProt Q16539); details: H929 live cell, range class, read-out: % inhibition
# Protocol: as §1
# [31] = target: GSK3B (Homo sapiens (Human), UniProt P49841); details: H929 live cell
# Protocol: as §1
# [32] = target: PKR (Homo sapiens (Human), UniProt P19525); details: H929 live cell
# Protocol: as §1
# [33] = target: MAP2K4 (Homo sapiens (Human), UniProt P45985); details: H929 live cell
# Protocol: as §1
# [34] = target: CDK7 (Homo sapiens (Human), UniProt P50613); details: H929 live cell
# Protocol: as §1
# [35] = range class, read-out: % inhibition
# Chain of eEF2K (O00418 whole entry): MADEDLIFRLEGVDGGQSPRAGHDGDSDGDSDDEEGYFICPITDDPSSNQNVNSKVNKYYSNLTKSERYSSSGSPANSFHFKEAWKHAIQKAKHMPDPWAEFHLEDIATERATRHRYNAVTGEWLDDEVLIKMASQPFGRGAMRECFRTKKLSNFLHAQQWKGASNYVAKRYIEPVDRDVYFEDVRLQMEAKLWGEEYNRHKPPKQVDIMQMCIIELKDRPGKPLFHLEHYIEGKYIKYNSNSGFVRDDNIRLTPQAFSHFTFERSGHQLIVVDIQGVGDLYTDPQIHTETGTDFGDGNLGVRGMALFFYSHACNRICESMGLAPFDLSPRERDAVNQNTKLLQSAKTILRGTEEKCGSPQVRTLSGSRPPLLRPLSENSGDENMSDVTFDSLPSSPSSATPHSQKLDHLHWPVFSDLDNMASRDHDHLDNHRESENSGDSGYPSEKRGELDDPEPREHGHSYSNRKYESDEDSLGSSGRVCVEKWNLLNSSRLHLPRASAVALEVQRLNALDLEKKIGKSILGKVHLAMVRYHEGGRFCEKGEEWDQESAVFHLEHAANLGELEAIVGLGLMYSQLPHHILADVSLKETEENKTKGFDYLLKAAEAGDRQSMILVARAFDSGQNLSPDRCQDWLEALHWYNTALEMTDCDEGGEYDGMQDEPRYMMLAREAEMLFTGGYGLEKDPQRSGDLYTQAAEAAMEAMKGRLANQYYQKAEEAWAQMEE
# Chain of PRP4 (Q13523 whole entry): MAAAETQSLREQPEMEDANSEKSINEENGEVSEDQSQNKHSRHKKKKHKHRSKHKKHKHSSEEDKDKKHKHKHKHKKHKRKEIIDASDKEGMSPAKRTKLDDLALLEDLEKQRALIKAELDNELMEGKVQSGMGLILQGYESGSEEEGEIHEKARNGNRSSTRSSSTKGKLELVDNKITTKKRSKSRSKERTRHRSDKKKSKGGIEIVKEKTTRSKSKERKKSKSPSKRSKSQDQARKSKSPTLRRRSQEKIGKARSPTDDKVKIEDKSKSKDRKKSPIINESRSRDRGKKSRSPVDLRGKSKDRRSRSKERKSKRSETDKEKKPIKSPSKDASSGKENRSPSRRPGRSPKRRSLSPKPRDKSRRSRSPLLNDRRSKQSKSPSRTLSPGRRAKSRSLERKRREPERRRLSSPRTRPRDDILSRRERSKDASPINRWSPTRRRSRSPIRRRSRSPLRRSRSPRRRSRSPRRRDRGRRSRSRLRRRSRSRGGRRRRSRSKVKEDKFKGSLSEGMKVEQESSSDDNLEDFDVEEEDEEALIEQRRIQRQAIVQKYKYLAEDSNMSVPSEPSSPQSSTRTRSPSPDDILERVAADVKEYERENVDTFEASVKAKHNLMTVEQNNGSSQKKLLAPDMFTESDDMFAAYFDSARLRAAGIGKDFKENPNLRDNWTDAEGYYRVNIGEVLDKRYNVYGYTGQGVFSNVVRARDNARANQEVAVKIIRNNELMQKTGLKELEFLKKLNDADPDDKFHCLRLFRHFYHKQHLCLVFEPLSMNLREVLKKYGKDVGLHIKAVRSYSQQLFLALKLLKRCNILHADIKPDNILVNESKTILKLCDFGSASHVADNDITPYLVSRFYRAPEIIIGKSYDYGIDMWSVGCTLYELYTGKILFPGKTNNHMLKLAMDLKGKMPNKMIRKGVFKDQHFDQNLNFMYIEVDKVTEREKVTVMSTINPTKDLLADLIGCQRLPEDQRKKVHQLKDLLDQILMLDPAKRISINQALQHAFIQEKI
# Chain of CaMKK2 (Q96RR4 whole entry): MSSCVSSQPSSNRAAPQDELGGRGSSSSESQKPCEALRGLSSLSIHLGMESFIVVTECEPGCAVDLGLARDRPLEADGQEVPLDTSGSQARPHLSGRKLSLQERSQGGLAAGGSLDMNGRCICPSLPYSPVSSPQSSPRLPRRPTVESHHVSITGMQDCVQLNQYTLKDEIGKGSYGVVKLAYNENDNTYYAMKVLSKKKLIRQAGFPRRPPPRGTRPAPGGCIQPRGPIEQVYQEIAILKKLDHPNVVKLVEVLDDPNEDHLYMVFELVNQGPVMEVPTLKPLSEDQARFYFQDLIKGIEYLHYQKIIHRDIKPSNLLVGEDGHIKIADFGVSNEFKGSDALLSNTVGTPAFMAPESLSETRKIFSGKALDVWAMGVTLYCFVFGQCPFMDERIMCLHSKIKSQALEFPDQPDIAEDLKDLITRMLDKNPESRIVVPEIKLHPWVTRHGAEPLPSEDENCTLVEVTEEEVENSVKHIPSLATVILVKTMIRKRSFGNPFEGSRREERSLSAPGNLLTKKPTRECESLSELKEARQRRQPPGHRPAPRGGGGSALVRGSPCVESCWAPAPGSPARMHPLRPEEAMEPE
# Chain of PKCi (P41743 whole entry): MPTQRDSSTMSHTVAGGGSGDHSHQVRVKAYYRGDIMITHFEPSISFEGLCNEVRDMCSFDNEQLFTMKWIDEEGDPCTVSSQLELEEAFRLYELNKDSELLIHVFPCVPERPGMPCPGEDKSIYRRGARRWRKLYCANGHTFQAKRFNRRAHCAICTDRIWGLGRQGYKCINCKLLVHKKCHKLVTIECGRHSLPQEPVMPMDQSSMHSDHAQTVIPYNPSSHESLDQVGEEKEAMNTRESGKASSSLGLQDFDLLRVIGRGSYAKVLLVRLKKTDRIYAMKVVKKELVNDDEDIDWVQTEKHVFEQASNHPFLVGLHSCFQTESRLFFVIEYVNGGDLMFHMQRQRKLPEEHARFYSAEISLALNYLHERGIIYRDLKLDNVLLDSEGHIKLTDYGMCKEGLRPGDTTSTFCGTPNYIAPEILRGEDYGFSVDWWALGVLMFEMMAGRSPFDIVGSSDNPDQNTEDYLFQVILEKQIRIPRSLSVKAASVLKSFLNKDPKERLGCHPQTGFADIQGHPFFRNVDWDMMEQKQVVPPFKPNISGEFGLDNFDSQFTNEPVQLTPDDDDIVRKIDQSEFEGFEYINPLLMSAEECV
# Chain of AKT1 (P31749 whole entry): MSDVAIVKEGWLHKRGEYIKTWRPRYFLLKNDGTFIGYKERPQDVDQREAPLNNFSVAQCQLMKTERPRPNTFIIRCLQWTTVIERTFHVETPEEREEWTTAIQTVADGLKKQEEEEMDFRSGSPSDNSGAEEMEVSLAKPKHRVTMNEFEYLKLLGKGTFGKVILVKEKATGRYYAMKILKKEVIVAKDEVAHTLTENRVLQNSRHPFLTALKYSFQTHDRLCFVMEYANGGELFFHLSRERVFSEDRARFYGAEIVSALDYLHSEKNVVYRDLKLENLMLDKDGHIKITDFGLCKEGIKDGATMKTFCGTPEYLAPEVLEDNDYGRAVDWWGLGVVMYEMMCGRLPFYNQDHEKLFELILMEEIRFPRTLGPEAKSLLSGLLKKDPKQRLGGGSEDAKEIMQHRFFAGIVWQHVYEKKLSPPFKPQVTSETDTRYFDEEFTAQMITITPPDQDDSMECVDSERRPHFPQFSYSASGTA
# Chain of MLK3 (Q16584 whole entry): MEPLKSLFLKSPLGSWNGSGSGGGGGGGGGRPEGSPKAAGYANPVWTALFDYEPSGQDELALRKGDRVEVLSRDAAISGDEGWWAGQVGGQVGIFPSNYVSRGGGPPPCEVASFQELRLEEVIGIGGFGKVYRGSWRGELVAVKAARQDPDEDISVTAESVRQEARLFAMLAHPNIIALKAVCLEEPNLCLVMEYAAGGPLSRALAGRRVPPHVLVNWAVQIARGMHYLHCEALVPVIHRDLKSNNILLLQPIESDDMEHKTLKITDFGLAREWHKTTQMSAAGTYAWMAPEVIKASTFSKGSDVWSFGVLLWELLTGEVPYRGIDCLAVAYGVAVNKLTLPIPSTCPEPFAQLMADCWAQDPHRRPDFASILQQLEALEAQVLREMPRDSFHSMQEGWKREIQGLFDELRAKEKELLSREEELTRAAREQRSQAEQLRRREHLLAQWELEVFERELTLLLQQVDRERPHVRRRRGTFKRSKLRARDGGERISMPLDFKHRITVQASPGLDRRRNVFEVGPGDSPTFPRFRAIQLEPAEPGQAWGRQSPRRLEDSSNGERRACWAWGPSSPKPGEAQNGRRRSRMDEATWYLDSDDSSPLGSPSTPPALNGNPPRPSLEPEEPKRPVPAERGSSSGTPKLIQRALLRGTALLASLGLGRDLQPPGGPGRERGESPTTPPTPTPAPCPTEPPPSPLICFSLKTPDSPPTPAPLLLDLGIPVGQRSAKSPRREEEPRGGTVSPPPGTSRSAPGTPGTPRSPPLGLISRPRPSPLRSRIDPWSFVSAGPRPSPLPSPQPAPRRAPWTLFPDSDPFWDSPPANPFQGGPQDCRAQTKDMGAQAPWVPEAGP
# Chain of BRAF (P15056 whole entry): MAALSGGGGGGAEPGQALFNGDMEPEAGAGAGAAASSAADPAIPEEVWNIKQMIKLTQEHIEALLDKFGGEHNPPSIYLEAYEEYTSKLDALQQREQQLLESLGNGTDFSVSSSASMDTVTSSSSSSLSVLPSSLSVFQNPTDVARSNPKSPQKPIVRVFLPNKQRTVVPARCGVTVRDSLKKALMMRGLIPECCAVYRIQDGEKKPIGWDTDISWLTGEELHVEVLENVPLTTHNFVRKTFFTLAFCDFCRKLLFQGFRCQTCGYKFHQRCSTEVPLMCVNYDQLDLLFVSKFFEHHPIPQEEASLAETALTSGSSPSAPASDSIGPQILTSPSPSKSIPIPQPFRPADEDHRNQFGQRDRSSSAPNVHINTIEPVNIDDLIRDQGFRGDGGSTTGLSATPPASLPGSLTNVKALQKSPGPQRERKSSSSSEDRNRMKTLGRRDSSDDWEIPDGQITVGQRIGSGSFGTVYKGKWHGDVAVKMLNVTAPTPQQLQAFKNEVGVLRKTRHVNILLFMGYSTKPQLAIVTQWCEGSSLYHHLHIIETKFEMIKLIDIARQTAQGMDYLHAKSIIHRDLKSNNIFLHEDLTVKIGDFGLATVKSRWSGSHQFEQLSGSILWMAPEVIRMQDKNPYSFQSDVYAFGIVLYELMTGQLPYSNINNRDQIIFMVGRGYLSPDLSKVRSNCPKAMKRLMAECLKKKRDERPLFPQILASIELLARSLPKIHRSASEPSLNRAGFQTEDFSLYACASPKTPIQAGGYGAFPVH
structure (smiles),measurement,setting,value
"COc1cc(NS(=O)(=O)C2CC2)ccc1-c1cnc(N)c(-c2ccc3c(c2)CCNC3=O)c1 [Compound I-50, N-(4-(6-amino-5-(1-oxo-1,2,3,4-tetrahydroisoquinolin-6-yl)pyridin-3-yl)-3-methoxyphenyl) cyclopropanesulfonamide]",inhibition at 10 µM,[1]; [35],0%
same,inhibition at 10 µM,[1]; read-out: inhibition (10 μM),-1.7%
same,inhibition at 10 µM,[2]; [35],0%
same,inhibition at 10 µM,[2]; read-out: inhibition (10 μM),27.7%
same,inhibition at 10 µM,[3]; [35],0%
same,inhibition at 10 µM,[3]; read-out: inhibition (10 μM),11.3%
same,inhibition at 10 µM,[4]; [35],0%
same,inhibition at 10 µM,[4]; read-out: inhibition (10 μM),-12.3%
same,% inhibition,"[5]; 10 μM, range class",>90%
same,inhibition (10 μM),[5],98.7%
same,inhibition at 10 µM,[6]; [35],0%
same,inhibition at 10 µM,[6]; read-out: inhibition (10 μM),-74.9%
same,inhibition at 10 µM,[7]; [35],0%
same,inhibition at 10 µM,[7]; read-out: inhibition (10 μM),3.2%
same,% inhibition,"[8]; 10 μM, range class",0.0%
same,inhibition (10 μM),[8],−29.5%
same,inhibition at 10 µM,[9]; [35],0%
same,inhibition at 10 µM,[9]; read-out: inhibition (10 μM),-1%
same,inhibition at 10 µM,[10]; [35],75 to 90%
same,inhibition at 10 µM,[10]; read-out: inhibition (10 μM),88.3%
same,% inhibition,"[11]; 10 μM, range class",0.0%
same,inhibition (10 μM),[11],17.8%
same,inhibition at 10 µM,[12]; [35],0%
same,inhibition at 10 µM,[12]; read-out: inhibition (10 μM),7.7%
same,inhibition at 10 µM,[13]; [35],0%
same,inhibition at 10 µM,[13]; read-out: inhibition (10 μM),21.5%
same,inhibition at 10 µM,[14]; [35],0%
same,inhibition at 10 µM,[14]; read-out: inhibition (10 μM),2.1%
same,inhibition at 10 µM,[15]; [35],0%
same,inhibition at 10 µM,[15]; read-out: inhibition (10 μM),15.6%
same,inhibition at 10 µM,[16]; [35],0%
same,inhibition at 10 µM,[16]; read-out: inhibition (10 μM),-15%
same,inhibition at 10 µM,[17]; [35],0%
same,inhibition at 10 µM,[17]; read-out: inhibition (10 μM),30.8%
same,inhibition at 10 µM,[18]; [35],0%
same,inhibition at 10 µM,[18]; read-out: inhibition (10 μM),34.5%
same,inhibition at 10 µM,[19]; [35],0%
same,inhibition at 10 µM,[19]; read-out: inhibition (10 μM),-35.8%
same,% inhibition,"[20]; 10 μM, range class",0.0%
same,inhibition (10 μM),[20],−68.1%
same,inhibition at 10 µM,[21]; [35],0%
same,inhibition at 10 µM,[21]; read-out: inhibition (10 μM),-1.4%
same,inhibition at 10 µM,[22]; [35],> 90%
same,inhibition at 10 µM,[22]; read-out: inhibition (10 μM),95.2%
same,% inhibition,"[23]; 10 μM, range class",0.0%
same,inhibition (10 μM),[23],0.4%
same,inhibition at 10 µM,[24]; [35],35 to 40%
same,inhibition at 10 µM,[24]; read-out: inhibition (10 μM),40.9%
same,inhibition at 10 µM,[25]; [35],0%
same,inhibition at 10 µM,[25]; read-out: inhibition (10 μM),-17.9%
same,inhibition at 10 µM,[26]; [35],0%
same,inhibition at 10 µM,[26]; read-out: inhibition (10 μM),-39.1%
same,inhibition at 10 µM,[27]; [35],50 to 75%
same,inhibition at 10 µM,[27]; read-out: inhibition (10 μM),69.7%
same,inhibition at 10 µM,[28]; [35],0%
same,inhibition at 10 µM,[28]; read-out: inhibition (10 μM),7.9%
same,inhibition at 10 µM,[29]; [35],0%
same,inhibition at 10 µM,[29]; read-out: inhibition (10 μM),14.3%
same,inhibition at 10 µM,[30],0%
same,inhibition at 10 µM,[31]; [35],75 to 90%
same,inhibition at 10 µM,[31]; read-out: inhibition (10 μM),81.1%
same,inhibition at 10 µM,[32]; [35],0%
same,inhibition at 10 µM,[32]; read-out: inhibition (10 μM),1.8%
same,inhibition at 10 µM,[33]; [35],35 to 40%
same,inhibition at 10 µM,[33]; read-out: inhibition (10 μM),37.5%
same,inhibition at 10 µM,[34]; [35],0%
same,inhibition at 10 µM,[34]; read-out: inhibition (10 μM),19.4%
